# Assay results taken from patent publication US20010051630A1, “Use of hydroxylamine derivatives, and method and preparations for increasing the tolerance of field crops against weather stresses” (priority 1997, published 2001).
# Marks after values point to notes of the source that are not given here.
# What was measured:
# [1] = tested on: Seaway bean cultivar; test: Drought tolerance of beans, part a (5 days hardening); format: in vivo; conditions: 7 days without water, one week regeneration
# From the text: (§1) Based on the experiences of our preliminary experiments, the plants were hardened before the application of the active agent by withholding the water for a few days, until the first signs of withering appeared. Then the plants were watered and the active agent was either dissolved in the water, or sprayed to the plants directly. Afterwards, the plants were subjected to different periods of drought according to the given experiment, watered again, and after a week-long regeneration period, the survival ratio was determined.
# a) Seaway bean cultivar was hardened for 5 days by withholding the water. Afterwards the plantlets were watered for two days normally. During this time, a 10 mg/liter and 100 mg/liter concentration solution of the active agent was applied two times a day dissolved in water or by direct spraying. Then the water was withheld for 7 days, and after a week-long regeneration period, the survival ratio was determined.
# [2] = tested on: bean plants (cv. Seaway); test: Drought tolerance of beans, part b (7 days hardening); format: in vivo; conditions: 7 days without water, 10 mg/liter and 100 mg/liter solution named, table does not say which
# From the text: as §1
# b) In this experiment, bean plants (cv. Seaway) were hardened for 7 days instead of the 5 days described in Part a. Then a 10 mg/liter and 100 mg/liter concentration solution of the active agent was applied two times a day for two days. Then 7 days without water followed, and after a week-long regeneration period, the results of the experiment were evaluated.
# [3] = tested on: soybean cv. Bólyi 44; test: Field soybean cultivation, yield; format: in vivo
# Experimental: The experiment was performed using soybean cv. Bólyi 44. Before sowing, the seeds were treated with Rhyzobium Japonicum nitrogen-binding bacterium, which forms a root nodule providing 50-70% of the nitrogen demand of the plant.
# The examined compounds were applied by pearling the seeds; 1 ml of pearling agent containing 1 mg of active agent in a 5% aqueous PVA solution was used for 100 seeds.
# The plants were sown after soil preparation in the autumn, using a crop rotation system, 3-5 cm deep in the ground, with a 45-50 cm row distance, a 5 cm plant distance and 450,000-500,000 plant/ha density. The date of sowing was Apr. 15, 1997. During the development of the plant, the usual cultivation procedures were followed and the usual pesticides were used. The harvest took place in September-October, with the water content of the grains being between 16-18%.
# [4] = tested on: Mo 17 inbred maize line; test: CSVT (Complex Stressing Vigour Test), seeds soaked in active agent, Mo 17 maize; format: in vivo; conditions: seeds soaked in 10 mg/l active agent, * = significant vs control P < 0.05
# Experimental: (§2) In this experiment the tolerance of maize, soybean and pepper seeds treated with the active agent against cold was tested. This test imposed temperature and oxygen deficiency stresses on the seeds and was carried out according to Barla-Szabó and Dolinka CSVT (Complex Stressing Vigour Test). For a single test, two hundred seeds were soaked for 48 hours at 25° C. and another 48 hours at 5° C in 150 ml distilled water containing the active agent in 10 mg/l concentration. Following the 96 hours of soaking, the seeds were further germinated between rolled wet paper for 96 hours at 25° C. There were 25 seeds in each roll, the rolls were placed vertically into containers and covered with a plastic bag in order to reduce evaporation. During the whole procedure the seeds were kept in darkness. At the end of the experiment the number of normally developing and ungerminated seeds were recorded. The length of the normal seedlings was measured and the average length of the five longest seedlings was calculated. Seedlings longer than 0.33 times the average length of the five longest seedlings were considered to be of high vigour, and low vigour seedlings were shorter than this length.
# [5] = tested on: green peppers; test: CSVT, green peppers; format: in vivo, pepper
# Experimental: as §2, with “darkness.” for “darkness. At the end of the experiment the number of normally developing and ungerminated seeds were recorded. The length of the normal seedlings was measured and the average length of the five longest seedlings was calculated. Seedlings longer than 0.33 times the average length of the five longest seedlings were considered to be of high vigour, and low vigour seedlings were shorter than this length.”
# At the end of the experiment the number of normally developing and ungerminated seeds were recorded. The length of the normal seedlings was measured and the average length of the five longest seedlings was calculated. Seedlings longer than 0.33 times the average length of the five longest seedlings were considered to be of high vigour, and low vigour seedlings were shorter than this length.
# Under the circumstances of the CSVT test, they increased the length of the sprouts and the roots along with the proportion of the high vigour seedlings. […]
smiles,measurement,setting,value
"CC(C)(C)NCC(O)CONC(=O)c1cccc(C(F)(F)F)c1.Cl (centres unmarked) [Compound 1, N-[2-hydroxy-3-(1,1-dimethylethyl-amino)propoxy]-3-trifluoromethyl-benzamide monohydrochloride]","survival (%), Spraying (100 mg/l)",[1],71* %
same,"survival (%), Watering (10 mg/l)",[1],30* %
same,"survival (%), Watering (100 mg/l)",[1],41* %
same,Survival (%),[2],14* %
same,Weight of the crop (kg/m^2),[3]; seeds pearled with 1 mg active agent in 1 ml 5% PVA per 100 seeds,0.55 kg/m^2
same,Improvement compared to the control (%),[3]; weight of the crop,22.2%
same,Ratio of high vigour plants (%),[4],29* %
same,Ratio of high vigour plants (%),[5],47* %
